PubChem BioAssay AID256 (DTP/NCI, 2004)
“And” between values parts separate entries of the source, which are not always exact repeats. Equal entries are not always repeated. Toxic doses and inconclusive results are not listed. How the source made its calls: active means survival T/C of 150% or more; inactive means T/C below 125% in these data. Non-standard residues stand in square brackets, D forms with d. Residues, ends and D or L forms follow the SMILES beside them. ξ: configuration not given here. *: point of attachment. Cbz = O=C(OCc1ccccc1)*; ξV = CC(C)C(N)C(=O)O

System: CD2F1 mice, L1210 leukemia ip, survival T/C
Assay: NCI In Vivo Anticancer Drug Screen. Data for tumor model L1210 Leukemia (intraperitoneal) in CD2F1 (CDF1) mice
Settings: higher = longer survival
Summary of the method: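 Ratio T/C, where T is the treated-group value and C the vehicle-dosed control value, from mice implanted with a transplantable tumor.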

[1] = endpoint: mean survival time, dose: 100.0 mg/kg/injection, schedule: Q04DX002 (ip), vehicle: saline with Tween-80
[2] = endpoint: mean survival time, dose: 100.0 mg/kg/injection, schedule: Q04DX003 (ip), vehicle: saline with Tween-80
[3] = endpoint: mean survival time, dose: 200.0 mg/kg/injection, schedule: Q04DX003 (ip), vehicle: saline with Tween-80
[4] = endpoint: mean survival time, dose: 400.0 mg/kg/injection, schedule: Q04DX003 (ip), vehicle: saline with Tween-80
[5] = endpoint: mean survival time, dose: 100.0 mg/kg/injection, schedule: Q01DX009 (ip), vehicle: saline with Tween-80

Measured: T/C

CCOC(=O)C(Cc1ccc(C)cc1)P(=O)(OCC)OCC (stereo not drawn)
inactive: endpoint: mean survival time, dose: 100.0 mg/kg/injection, schedule: Q01DX001 (ip), vehicle: saline 102 % of control | endpoint: mean survival time, dose: 200.0 mg/kg/injection, schedule: Q01DX001 (ip), vehicle: saline 98 % of control | endpoint: mean survival time, dose: 400.0 mg/kg/injection, schedule: Q01DX001 (ip), vehicle: saline 102 % of control

COc1ccc(/C=C2\N=C(c3ccccc3)OC2=O)cc1OC
inactive: endpoint: mean survival time, dose: 100.0 mg/kg/injection, schedule: Q01DX009 (ip), vehicle: saline 103 % of control | endpoint: mean survival time, dose: 200.0 mg/kg/injection, schedule: Q01DX009 (ip), vehicle: saline 98 % of control | endpoint: mean survival time, dose: 400.0 mg/kg/injection, schedule: Q01DX009 (ip), vehicle: saline 98 % of control

ClCCCCC(Cl)(Cl)Cl
inactive: endpoint: mean survival time, dose: 100.0 mg/kg/injection, schedule: Q01DX001 (ip), vehicle: Klucel (hydroxypropylcellulose) (HPC) 101 % of control | endpoint: mean survival time, dose: 200.0 mg/kg/injection, schedule: Q01DX001 (ip), vehicle: Klucel (hydroxypropylcellulose) (HPC) 98 % of control | endpoint: mean survival time, dose: 400.0 mg/kg/injection, schedule: Q01DX001 (ip), vehicle: Klucel (hydroxypropylcellulose) (HPC) 93 % of control

c1cc2c3c(c4sc5ccccc5c4cc3c1)CC2
inactive: endpoint: mean survival time, dose: 12.5 mg/kg/injection, schedule: Q04DX003 (ip), vehicle: other 101 % of control | endpoint: mean survival time, dose: 25.0 mg/kg/injection, schedule: Q04DX003 (ip), vehicle: other 115 % of control | endpoint: mean survival time, dose: 50.0 mg/kg/injection, schedule: Q04DX003 (ip), vehicle: other 108 % of control | endpoint: mean survival time, dose: 100.0 mg/kg/injection, schedule: Q04DX003 (ip), vehicle: other 115 % of control | endpoint: mean survival time, dose: 200.0 mg/kg/injection, schedule: Q04DX003 (ip), vehicle: other 108 % of control

O=C(NC1CCC(CC2CCCCC2)CC1)C(Cl)Cl (stereo not drawn)
inactive: [1] 101 % of control | endpoint: mean survival time, dose: 200.0 mg/kg/injection, schedule: Q04DX002 (ip), vehicle: saline with Tween-80 101 % of control | endpoint: mean survival time, dose: 400.0 mg/kg/injection, schedule: Q04DX002 (ip), vehicle: saline with Tween-80 89 % of control

C[P+]1(c2ccccc2)CCC(N)=C(C#N)C1 (stereo not drawn)
inactive: endpoint: mean survival time, dose: 25.0 mg/kg/injection, schedule: Q04DX002 (ip), vehicle: saline with Tween-80 97 % of control | endpoint: mean survival time, dose: 50.0 mg/kg/injection, schedule: Q04DX002 (ip), vehicle: saline with Tween-80 101 % of control | [1] 101 % of control

O=C(O)Cc1ccc(O)c(O)c1.[Pt].c1ccc([PH+](c2ccccc2)c2ccccc2)cc1.c1ccc([PH+](c2ccccc2)c2ccccc2)cc1
inactive: endpoint: median survival time, dose: 10.0 mg/kg/injection, schedule: Q04DX003 (ip), vehicle: saline with Tween-80 103 % of control | endpoint: median survival time, dose: 20.0 mg/kg/injection, schedule: Q04DX003 (ip), vehicle: saline with Tween-80 95 % of control | endpoint: median survival time, dose: 40.0 mg/kg/injection, schedule: Q04DX003 (ip), vehicle: saline with Tween-80 101 % of control | endpoint: median survival time, dose: 50.0 mg/kg/injection, schedule: Q04DX003 (ip), vehicle: saline with Tween-80 94 % of control | endpoint: median survival time, dose: 80.0 mg/kg/injection, schedule: Q04DX003 (ip), vehicle: saline with Tween-80 94 % of control | endpoint: median survival time, dose: 100.0 mg/kg/injection, schedule: Q04DX003 (ip), vehicle: saline with Tween-80 94 % of control | endpoint: median survival time, dose: 200.0 mg/kg/injection, schedule: Q04DX003 (ip), vehicle: saline with Tween-80 97 % of control | endpoint: median survival time, dose: 400.0 mg/kg/injection, schedule: Q04DX003 (ip), vehicle: saline with Tween-80 89 % of control

CCC(C)C#N (stereo not drawn)
inactive: endpoint: mean survival time, dose: 5.0 mg/kg/injection, schedule: Q01DX009 (ip), vehicle: saline with Tween-80 98 % of control | endpoint: mean survival time, dose: 5.0 mg/kg/injection, schedule: Q04DX003 (ip), vehicle: saline 97 % of control | endpoint: mean survival time, dose: 10.0 mg/kg/injection, schedule: Q01DX009 (ip), vehicle: saline with Tween-80 100 % of control | endpoint: mean survival time, dose: 10.0 mg/kg/injection, schedule: Q04DX003 (ip), vehicle: saline 103 % of control | endpoint: mean survival time, dose: 20.0 mg/kg/injection, schedule: Q01DX009 (ip), vehicle: saline with Tween-80 94 % of control | endpoint: mean survival time, dose: 20.0 mg/kg/injection, schedule: Q04DX003 (ip), vehicle: saline 103 % of control

COC(=O)C(NC(=O)CNC(=O)OCc1ccccc1)C(C)C (stereo not drawn) (Cbz-Gly-[ξV]-OMe)
inactive: [2] 100 % of control | [3] 97 % of control | [4] 99 % of control

N#CC(C#N)=CN1CCCC1
inactive: endpoint: mean survival time, dose: 5.0 mg/kg/injection, schedule: Q01DX001 (ip), vehicle: saline with Tween-80 100 % of control | endpoint: mean survival time, dose: 10.0 mg/kg/injection, schedule: Q01DX001 (ip), vehicle: saline with Tween-80 102 % of control | endpoint: mean survival time, dose: 20.0 mg/kg/injection, schedule: Q01DX001 (ip), vehicle: saline with Tween-80 93 % of control

Cc1nc(C)c(CCO)c(=O)[nH]1
inactive: [2] 97 % of control | [3] 101 % of control | [4] 103 % of control

CCC(=O)c1ccc(O)c(O)c1
inactive: endpoint: mean survival time, dose: 25.0 mg/kg/injection, schedule: Q01DX009 (ip), vehicle: saline with Tween-80 95 % of control | endpoint: mean survival time, dose: 50.0 mg/kg/injection, schedule: Q01DX009 (ip), vehicle: saline with Tween-80 96 % of control | [5] 96 % of control and 100 % of control | endpoint: mean survival time, dose: 100.0 mg/kg/injection, schedule: Q04DX003 (ip), vehicle: saline 96 % of control | endpoint: mean survival time, dose: 200.0 mg/kg/injection, schedule: Q04DX003 (ip), vehicle: saline 105 % of control | endpoint: mean survival time, dose: 400.0 mg/kg/injection, schedule: Q04DX003 (ip), vehicle: saline 92 % of control

CCOC(=O)c1cc([N+](=O)[O-])c(Sc2ncnc3nc[nH]c23)c([N+](=O)[O-])c1
inactive: endpoint: mean survival time, dose: 0.63 mg/kg/injection, schedule: Q01DX005 (ip), vehicle: other 104 % of control | endpoint: mean survival time, dose: 1.25 mg/kg/injection, schedule: Q01DX005 (ip), vehicle: other 109 % of control | endpoint: mean survival time, dose: 2.5 mg/kg/injection, schedule: Q01DX005 (ip), vehicle: other 101 % of control | endpoint: mean survival time, dose: 5.0 mg/kg/injection, schedule: Q01DX005 (ip), vehicle: other 114 % of control | endpoint: mean survival time, dose: 10.0 mg/kg/injection, schedule: Q01DX005 (ip), vehicle: other 114 % of control | endpoint: mean survival time, dose: 20.0 mg/kg/injection, schedule: Q01DX005 (ip), vehicle: other 113 % of control | endpoint: mean survival time, dose: 40.0 mg/kg/injection, schedule: Q01DX005 (ip), vehicle: other 120 % of control | endpoint: mean survival time, dose: 80.0 mg/kg/injection, schedule: Q01DX005 (ip), vehicle: other 117 % of control

COc1ccc2c(c1)CC/C2=N/O
inactive: [2] 97 % of control | [3] 103 % of control | [4] 107 % of control

NC(=O)SCCCCl
inactive: [5] 103 % of control | endpoint: mean survival time, dose: 118.0 mg/kg/injection, schedule: Q01DX009 (ip), vehicle: saline with Tween-80 106 % of control | endpoint: mean survival time, dose: 178.0 mg/kg/injection, schedule: Q01DX009 (ip), vehicle: saline with Tween-80 112 % of control | endpoint: mean survival time, dose: 200.0 mg/kg/injection, schedule: Q01DX009 (ip), vehicle: saline with Tween-80 113 % of control | endpoint: mean survival time, dose: 266.0 mg/kg/injection, schedule: Q01DX009 (ip), vehicle: saline with Tween-80 124 % of control

C[N+](C)(Cc1ccccc1)c1ccccc1
inactive: endpoint: mean survival time, dose: 10.0 mg/kg/injection, schedule: Q01DX009 (ip), vehicle: saline 109 % of control | endpoint: mean survival time, dose: 20.0 mg/kg/injection, schedule: Q01DX009 (ip), vehicle: saline 94 % of control

O=C(COc1ccccc1)N(/N=C/c1ccccc1)C(=O)c1ccccc1
inactive: endpoint: mean survival time, dose: 100.0 mg/kg/injection, schedule: Q01DX009 (ip), vehicle: Klucel (hydroxypropylcellulose) (HPC) 96 % of control | endpoint: mean survival time, dose: 100.0 mg/kg/injection, schedule: Q04DX003 (ip), vehicle: Klucel (hydroxypropylcellulose) (HPC) 94 % of control | endpoint: mean survival time, dose: 200.0 mg/kg/injection, schedule: Q01DX009 (ip), vehicle: Klucel (hydroxypropylcellulose) (HPC) 96 % of control | endpoint: mean survival time, dose: 200.0 mg/kg/injection, schedule: Q04DX003 (ip), vehicle: Klucel (hydroxypropylcellulose) (HPC) 92 % of control | endpoint: mean survival time, dose: 400.0 mg/kg/injection, schedule: Q01DX009 (ip), vehicle: Klucel (hydroxypropylcellulose) (HPC) 89 % of control | endpoint: mean survival time, dose: 400.0 mg/kg/injection, schedule: Q04DX003 (ip), vehicle: Klucel (hydroxypropylcellulose) (HPC) 94 % of control
